Measured values taken from patent US20020032220A1, “Formulations comprising dissolved paroxetine” (SmithKline Beecham plc, priority 1997, published 2002).
Counter-ions that a name gives are not always drawn.

Assay: Solubility testing of paroxetine hydrochloride in liquid carriers/solvents
Assay type: physicochemical
Source text: Since solid paroxetine forms are in general only sparingly soluble in common solvents, the solvents which are acceptable for use in capsules and for administration to patients need to be subjected to routine solubility testing to confirm that they can maintain an appropriate concentration of paroxetine. In addition, higher loadings of a paroxetine form in a suitable solvent may be achieved by using conventional physical techniques such as heating, shaking and sonication. Alternatively good solvents for paroxetine may be used in small amounts as cosolvents to solubilize paroxetine in liquids that are acceptable for capsule use but in which paroxetine is poorly soluble. Solubilising agents such as the polysorbates, the poloxamers, cyclodextrins, ionic and non-ionic surface active agents, for example Pluronic F60 and Sorbitan esters may also be used to enhance the solubility of paroxetine hydrochloride in solvents acceptable for capsule use but in which paroxetine is poorly soluble.
The term “oral swallow capsule” most suitably denotes a capsule having a maximum volume of 0.86 ml. Preferred capsules according to the present invention have a maximum volume of about 0.45 ml and more especially may lie in the range 0.2 to 0.4 ml, although capsules as small as 0.14 ml are also provided by the invention. […]

Structure (SMILES)	solubility (oil or lipid, in plant oils (Sunflower, Safflower, Peanut, Soybean, Cottonseed, Corn, Castor, Apricot seed, Olive, Wheat germ, Sesame, Evening Primrose, Canola), Mineral oil, liquid paraffin, Miglyol 810/812, Oleic acid, Ethyl Oleate, Span 80/85, Labrafac lipophile, Plurol Oleique, Peceol)	solubility (in words) (in Propylene Carbonate, Triacetin, Glycerol, Lauroglycol, Propylene glycol, PEG 300, Glycofurol, PEG 400, IPA, Span 20, Transcutol, Labrasol, Labrafil, Olepal, Glyceryl Linoleate (Maisine 35-1), Pharmasolve)
Fc1ccc([C@@H]2CCNC[C@H]2COc2ccc3c(c2)OCO3)cc1 [paroxetine hydrochloride]	< 10000 µg/mL	
Fc1ccc([C@@H]2CCNC[C@H]2COc2ccc3c(c2)OCO3)cc1 [paroxetine, (−)trans isomer of 4-(4′-fluorophenyl)-3-(3′,4′-methylenedioxy-phenoxymethyl)-piperidine]		useful solubility
